Experimental data from ChEMBL document CHEMBL5331067, “Disubstituted pyrimidine-5-carboxamide derivatives as novel HIV-1 NNRTIs: Crystallographic overlay-based molecular design, synthesis, and biological evaluation” (Eur J Med Chem, 2023).

Key:
[1] = Fold resistance, ratio of EC50 for antiviral activity against NNRTI-resistant HIV-1 harboring L100I mutant infected in human MT4 cells assessed as virus-induced cytopathicity to EC50 for antiviral activity against HIV-1 IIIB infected in human MT4 cells assessed as reduction in virus induced cytopathic effect; format: functional
[2] = Selectivity index, ratio of CC50 for cytotoxicity against human MT4 cells assessed as reduction in cell viability to EC50 for antiviral activity against NNRTI-resistant HIV-1 harboring K103N mutant infected in human MT4 cells; format: toxicity, cell-based; conditions: read-out: Ratio CC50/EC50
[3] = Cytotoxicity against human MT4 cells assessed as cell growth inhibition incubated for 5 days by MTT assay; format: toxicity, cell-based; conditions: time 5 day
[4] = Selectivity index, ratio of CC50 for cytotoxicity against human MT4 cells assessed as reduction in cell viability to EC50 for antiviral activity against NNRTI-resistant HIV-1 harboring E138K mutant infected in human MT4 cells; format: toxicity, cell-based; conditions: read-out: Ratio CC50/EC50
[5] = Selectivity index, ratio of CC50 for cytotoxicity against human MT4 cells assessed as reduction in cell viability to EC50 for antiviral activity against NNRTI-resistant HIV-1 harboring F227L/V106A double mutant infected in human MT4 cells; format: toxicity, cell-based; conditions: read-out: Ratio CC50/EC50
[6] = Fold resistance, ratio of EC50 for antiviral activity against NNRTI-resistant HIV-1 harboring F227L/V106A double mutant infected in human MT4 cells assessed as virus-induced cytopathicity to EC50 for antiviral activity against HIV-1 RES056 infected in human MT4 cells assessed as reduction in virus induced cytopathic effect; format: functional
[7] = tested on: Human immunodeficiency virus 1; assay: Antiviral activity against NNRTI-resistant HIV-1 harboring Y181C mutant infected in human MT4 cells assessed as virus-induced cytopathicity incubated for 5 days by MTT assay; format: functional, organism-based; conditions: Human immunodeficiency virus 1, MT4, 120 h
[8] = biological target: Human immunodeficiency virus type 1 reverse transcriptase (Human immunodeficiency virus 1, UniProt Q72547); assay: Inhibition of wild type HIV-1 reverse transcriptase assessed as reduction of biotin-dUTP incorporation into […] using ABTS as substrate incubated for 1 hrs by ELISA analysis
[9] = Fold resistance, ratio of EC50 for antiviral activity against NNRTI-resistant HIV-1 harboring K103N mutant infected in human MT4 cells assessed as virus-induced cytopathicity to EC50 for antiviral activity against HIV-1 IIIB infected in human MT4 cells assessed as reduction in virus induced cytopathic effect; format: functional
[10] = Fold resistance, ratio of EC50 for antiviral activity against NNRTI-resistant HIV-1 harboring F227L/V106A double mutant infected in human MT4 cells assessed as virus-induced cytopathicity to EC50 for antiviral activity against HIV-1 IIIB infected in human MT4 cells assessed as reduction in virus induced cytopathic effect; format: functional
[11] = Selectivity index, ratio of CC50 for cytotoxicity against human MT4 cells assessed as reduction in cell viability to EC50 for antiviral activity against NNRTI-resistant HIV-1 harboring Y181C mutant infected in human MT4 cells; format: toxicity, cell-based; conditions: read-out: Ratio CC50/EC50
[12] = Fold resistance, ratio of EC50 for antiviral activity against NNRTI-resistant HIV-1 harboring Y181C mutant infected in human MT4 cells assessed as virus-induced cytopathicity to EC50 for antiviral activity against HIV-1 IIIB infected in human MT4 cells assessed as reduction in virus induced cytopathic effect; format: functional
[13] = Selectivity index, ratio of CC50 for cytotoxicity against human MT4 cells assessed as reduction in cell viability to EC50 for antiviral activity against NNRTI-resistant HIV-1 harboring Y188L mutant infected in human MT4 cells; format: toxicity, cell-based; conditions: read-out: Ratio CC50/EC50
[14] = Fold resistance, ratio of EC50 for antiviral activity against NNRTI-resistant HIV-1 harboring Y188L mutant infected in human MT4 cells assessed as virus-induced cytopathicity to EC50 for antiviral activity against HIV-1 IIIB infected in human MT4 cells assessed as reduction in virus induced cytopathic effect; format: functional
[15] = Selectivity index, ratio of CC50 for cytotoxicity against human MT4 cells assessed as reduction in cell viability to EC50 for antiviral activity against NNRTI-resistant HIV-1 harboring L100I mutant infected in human MT4 cells; format: toxicity, cell-based; conditions: read-out: Ratio CC50/EC50
[16] = tested on: Human immunodeficiency virus 1; assay: Antiviral activity against HIV-1 IIIB infected in human MT4 cells assessed as reduction in virus induced cytopathic effect incubated for 5 days by MTT assay; format: functional, organism-based; conditions: Human immunodeficiency virus 1, IIIB, MT4, 120 h
[17] = tested on: Human immunodeficiency virus 1; assay: Antiviral activity against HIV-1 RES056 infected in human MT4 cells assessed as reduction in virus induced cytopathic effect incubated for 5 days by MTT assay; format: functional, organism-based; conditions: Human immunodeficiency virus 1, RES056, MT4, 120 h
[18] = tested on: Human immunodeficiency virus 1; assay: Antiviral activity against NNRTI-resistant HIV-1 harboring E138K mutant infected in human MT4 cells assessed as virus-induced cytopathicity incubated for 5 days by MTT assay; format: functional, organism-based; conditions: Human immunodeficiency virus 1, MT4, 120 h
[19] = tested on: Human immunodeficiency virus 1; assay: Antiviral activity against NNRTI-resistant HIV-1 harboring Y188L mutant infected in human MT4 cells assessed as virus-induced cytopathicity incubated for 5 days by MTT assay; format: functional, organism-based; conditions: Human immunodeficiency virus 1, MT4, 120 h
[20] = tested on: Human immunodeficiency virus 1; assay: Antiviral activity against NNRTI-resistant HIV-1 harboring K103N mutant infected in human MT4 cells assessed as virus-induced cytopathicity incubated for 5 days by MTT assay; format: functional, organism-based; conditions: Human immunodeficiency virus 1, MT4, 120 h
[21] = Selectivity index, ratio of CC50 for cytotoxicity against human MT4 cells assessed as reduction in cell viability to EC50 for antiviral activity against HIV-1 IIIB infected in human MT4 cells assessed as reduction in virus induced cytopathic effect; format: toxicity, cell-based; conditions: read-out: Ratio CC50/EC50
[22] = tested on: Human immunodeficiency virus 1; assay: Antiviral activity against NNRTI-resistant HIV-1 harboring L100I mutant infected in human MT4 cells assessed as virus-induced cytopathicity incubated for 5 days by MTT assay; format: functional, organism-based; conditions: Human immunodeficiency virus 1, MT4, 120 h
[23] = Fold resistance, ratio of EC50 for antiviral activity against NNRTI-resistant HIV-1 harboring E138K mutant infected in human MT4 cells assessed as virus-induced cytopathicity to EC50 for antiviral activity against HIV-1 IIIB infected in human MT4 cells assessed as reduction in virus induced cytopathic effect; format: functional
[24] = tested on: Human immunodeficiency virus 1; assay: Antiviral activity against NNRTI-resistant HIV-1 harboring F227L/V106A double mutant infected in human MT4 cells assessed as virus-induced cytopathicity incubated for 5 days by MTT assay; format: functional, organism-based; conditions: Human immunodeficiency virus 1, MT4, 120 h
[25] = Selectivity index, ratio of CC50 for cytotoxicity against human MT4 cells assessed as reduction in cell viability to EC50 for antiviral activity against HIV-1 RES056 infected in human MT4 cells assessed as reduction in virus induced cytopathic effect; format: toxicity, cell-based; conditions: read-out: Ratio CC50/EC50

SMILES: Cc1cc(C#N)cc(C)c1Oc1nc(NC2CCN(Cc3ccc(B(O)O)cc3)CC2)ncc1C(N)=O
- Ratio EC50 [1]: 3.2
- selectivity ratio [2]: > 5550
- CC50 at 120 h [3]: > 250 µM
- selectivity ratio [4]: > 1520
- selectivity ratio [5]: > 229
- Ratio EC50 [6]: 159.1
- EC50 [7]: 159 nM
- IC50 [8]: 1040 nM
- Ratio EC50 [9]: 1.1
- Ratio EC50 [10]: 26.2
- selectivity ratio [11]: > 1570
- Ratio EC50 [12]: 3.8
- selectivity ratio [13]: > 1190
- Ratio EC50 [14]: 5
- selectivity ratio [15]: > 187
- EC50 [16]: 42 nM
- EC50 [17]: 6.63 µM
- EC50 [18]: 165 nM
- EC50 [19]: 209 nM
- EC50 [20]: 45 nM
- selectivity ratio [21]: > 5990
- EC50 [22]: 133 nM
- Ratio EC50 [23]: 4
- EC50 [24]: 1090 nM
- selectivity ratio [25]: > 38

SMILES: Cc1cc(C#N)cc(C)c1Oc1nc(Nc2ccc(C#N)cc2)ncc1C(N)=O
- Ratio EC50 [1]: 14.7
- selectivity ratio [2]: 650
- CC50 at 120 h [3]: 32.2 µM
- selectivity ratio [4]: 459
- selectivity ratio [5]: 13
- Ratio EC50 [6]: 785.5
- EC50 [7]: 395 nM
- IC50 [8]: 196 nM
- Ratio EC50 [9]: 4.3
- Ratio EC50 [10]: 223.3
- selectivity ratio [11]: 82
- Ratio EC50 [12]: 34.6
- selectivity ratio [13]: 167
- Ratio EC50 [14]: 16.9
- selectivity ratio [15]: 192
- EC50 [16]: 11 nM
- EC50 [17]: 8.96 µM
- EC50 [18]: 70 nM
- EC50 [19]: 193 nM
- EC50 [20]: 50 nM
- selectivity ratio [21]: 2820
- EC50 [22]: 168 nM
- Ratio EC50 [23]: 6.2
- EC50 [24]: 2550 nM
- selectivity ratio [25]: 4

SMILES: Cc1cc(C#N)cc(C)c1Oc1nc(NC2CCN(c3ccc(NS(=O)(=O)N(C)C)cc3)CC2)ncc1C(N)=O
- Ratio EC50 [1]: 21.1
- selectivity ratio [2]: 18700
- CC50 at 120 h [3]: 209 µM
- selectivity ratio [4]: 8010
- selectivity ratio [5]: 6160
- Ratio EC50 [6]: 2359.1
- EC50 [7]: 54 nM
- IC50 [8]: 52 nM
- Ratio EC50 [9]: 1.7
- Ratio EC50 [10]: 5.1
- selectivity ratio [11]: 3910
- Ratio EC50 [12]: 8.1
- selectivity ratio [13]: 6350
- Ratio EC50 [14]: 5
- selectivity ratio [15]: 1500
- EC50 [16]: 7 nM
- EC50 [17]: 15.6 µM
- EC50 [18]: 26 nM
- EC50 [19]: 33 nM
- EC50 [20]: 11 nM
- selectivity ratio [21]: 31700
- EC50 [22]: 139 nM
- Ratio EC50 [23]: 3.9
- EC50 [24]: 34 nM
- selectivity ratio [25]: 13

SMILES: Cc1cc(C#N)cc(C)c1Oc1nc(NC2CCN(c3ccc(NS(=O)(=O)C4CC4)cc3)CC2)ncc1C(N)=O
- Ratio EC50 [1]: 8.5
- selectivity ratio [2]: 23400
- CC50 at 120 h [3]: 208 µM
- selectivity ratio [4]: 283
- selectivity ratio [5]: 6070
- Ratio EC50 [6]: 5.5
- EC50 [7]: 45 nM
- IC50 [8]: 38 nM
- Ratio EC50 [9]: 1.2
- Ratio EC50 [10]: 4.5
- selectivity ratio [11]: 4570
- Ratio EC50 [12]: 6
- selectivity ratio [13]: 6000
- Ratio EC50 [14]: 4.5
- selectivity ratio [15]: 3190
- EC50 [16]: 8 nM
- EC50 [17]: 0.042 µM
- EC50 [18]: 734 nM
- EC50 [19]: 35 nM
- EC50 [20]: 9 nM
- selectivity ratio [21]: 27200
- EC50 [22]: 65 nM
- Ratio EC50 [23]: 96.2
- EC50 [24]: 34 nM
- selectivity ratio [25]: 4920

SMILES: Cc1cc(C#N)cc(C)c1Oc1nc(NC2CCN(c3ccc(N)cc3)CC2)ncc1C(N)=O
- Ratio EC50 [1]: 6.6
- selectivity ratio [2]: 4120
- CC50 at 120 h [3]: 183 µM
- selectivity ratio [4]: 881
- selectivity ratio [5]: 169
- Ratio EC50 [6]: 96.4
- EC50 [7]: 252 nM
- IC50 [8]: 242 nM
- Ratio EC50 [9]: 1.1
- Ratio EC50 [10]: 26.1
- selectivity ratio [11]: 726
- Ratio EC50 [12]: 6.1
- selectivity ratio [13]: 718
- Ratio EC50 [14]: 6.2
- selectivity ratio [15]: 668
- EC50 [16]: 42 nM
- EC50 [17]: 4 µM
- EC50 [18]: 208 nM
- EC50 [19]: 255 nM
- EC50 [20]: 45 nM
- selectivity ratio [21]: 4420
- EC50 [22]: 275 nM
- Ratio EC50 [23]: 5
- EC50 [24]: 1080 nM
- selectivity ratio [25]: 46
